Laboratory results from patent US7138361B2, “Herbicidal heterocycles” (E. I. du Pont de Nemours and Company, priority 2000, dated 2006).

Columns and labels:
Type in all cases: in vivo
[1] = tested on: Surinam grass (Brachiaria decumbens); experiment: Test B preemergence
Outline: (§1)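 Ratings on a 0 to 100 visual scale (100 complete control) compare treated plants with controls 13 to 15 days after application. Treatments were pre- or postemergence sprays of compound in non-phytotoxic solvent with surfactant.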

[2] = tested on: barnyardgrass (Echinochloa crus-galli); experiment: Test B preemergence
Outline: as §1

[3] = tested on: cocklebur (Xanthium strumarium); experiment: Test B preemergence
Outline: as §1

corn (Zea mays) = experiment: Test B preemergence
Outline: as §1

[4] = tested on: crabgrass (Digitaria sanguinalis); experiment: Test B preemergence
Outline: as §1

[5] = tested on: giant foxtail (Setaria faberii); experiment: Test B preemergence
Outline: as §1

[6] = tested on: lambsquarters (Chenopodium album); experiment: Test B preemergence
Outline: as §1

[7] = tested on: morning glory (Ipomoea hederacea); experiment: Test B preemergence
Outline: as §1

[8] = tested on: pigweed (Amaranthus retroflexus); experiment: Test B preemergence
Outline: as §1

rice (Oryza saliva) = experiment: Test B preemergence
Outline: as §1

[9] = tested on: velvetleaf (Abutilon theophrasti); experiment: Test B preemergence
Outline: as §1

Sunflower [10] = experiment: Test C preemergence; conditions: Rate 125 g/ha; scale 0 to 100, 0 no effect, 100 complete control
[11] = tested on: Surinam grass (Brachiaria decumbens); experiment: Test C preemergence; conditions: for Plant response rating (0 to 100), Surinam grass: Rate 500 g/ha, visual evaluation after 12 to 14 days
Outline: (§2)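 Herbicidal effect is a visual 0–100 score (100 = complete control) assigned versus untreated plants, 12 to 14 days after spraying in the greenhouse. Test compounds were applied in a non-phytotoxic, surfactant-containing solvent.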

[12] = tested on: bermudagrass (Cynodon dactylon); experiment: Test C preemergence; conditions: for Plant response rating (0 to 100 where 0 is no effect and 100 is complete control), Bermudagrass: Rate 500 g/ha, visual evaluation after 12 to 14 days
Outline: as §2

[13] = tested on: cocklebur (Xanthium strumarium); experiment: Test C preemergence; conditions: for Plant response rating (0 to 100), Cocklebur: Rate 500 g/ha, visual evaluation after 12 to 14 days
Outline: as §2

[14] = tested on: common ragweed (Ambrosia elatior); experiment: Test C preemergence; conditions: for Plant response rating (0 to 100), Ragweed, Common: Rate 500 g/ha, visual evaluation after 12 to 14 days
Outline: as §2

[15] = tested on: crabgrass (Digitaria sanguinalis); experiment: Test C preemergence; conditions: for Plant response rating (0 to 100), Crabgrass: Rate 500 g/ha, visual evaluation after 12 to 14 days
Outline: as §2

[16] = tested on: giant foxtail (Setaria faberii); experiment: Test C preemergence; conditions: for Plant response rating (0 to 100), Foxtail, Giant: Rate 500 g/ha, visual evaluation after 12 to 14 days
Outline: as §2

[17] = tested on: goosegrass (Eleusine indica); experiment: Test C preemergence; conditions: for Plant response rating (0 to 100), Goosegrass: Rate 500 g/ha, visual evaluation after 12 to 14 days
Outline: as §2

[18] = tested on: morningglory (Ipomoea hederacea); experiment: Test C preemergence
Outline: as §2

[19] = tested on: velvetleaf (Abutilon theophrasti); experiment: Test C preemergence; conditions: for Plant response rating (0 to 100), Velvetleaf: Rate 500 g/ha, visual evaluation after 12 to 14 days
Outline: as §2

Sunflower [20] = experiment: Test C preemergence; conditions: Rate 500 g/ha, visual evaluation after 12 to 14 days
[21] = Preemergence, Rate 500 g/ha, scale 0 to 100, 0 no effect, 100 complete control
[22] = preemergence, Rate 125 g/ha, scale of 0 to 100 where 0 is no effect and 100 is complete control, 13 to 15 days
[23] = Rate 125 g/ha, scale 0 to 100, 0 no effect, 100 complete control
[24] = preemergence, Rate 62 g/ha, scale 0 to 100
[25] = preemergence, Rate 250 g/ha, scale 0 to 100, 0 no effect, 100 complete control

## Cc1ccc(N2CCC(n3ccc(C(C)(C)C)n3)C2=O)cc1I (centres unmarked) [Compound 122]
[1]; [21]
  Plant response rating, Surinam grass: 70
[1]; [22]
  Plant response rating, Surinam grass: 50
[2]; [21]
  Plant response rating, Barnyardgrass: 100
[2]; [22]
  Plant response rating, Barnyardgrass: 0
[3]; [21]
  Plant response rating, Cocklebur: 0
[3]; [22]
  Plant response rating, Cocklebur: 0
Corn (Zea mays); [21]
  Plant response rating, Corn: 0
Corn (Zea mays); [22]
  Plant response rating, Corn: 0
[4]; [21]
  Plant response rating, Crabgrass: 100
[4]; [22]
  Plant response rating, Crabgrass: 100
[5]; [21]
  Plant response rating, Foxtail, Giant: 30
[5]; [22]
  Plant response rating, Foxtail, Giant: 20
[6]; [21]
  Plant response rating, Lambsquarters: 100
[6]; [22]
  Plant response rating, Lambsquarters: 100
[7]; [21]
  Plant response rating, Morningglory: 0
[7]; [22]
  Plant response rating, Morningglory: 0
[8]; [21]
  Plant response rating, Pigweed: 100
[8]; [22]
  Plant response rating, Pigweed: 100
Rice (Oryza saliva); [21]
  Plant response rating, Rice: 0
Rice (Oryza saliva); [22]
  Plant response rating, Rice: 0
[9]; [21]
  Plant response rating, Velvetleaf: 0
[9]; [22]
  Plant response rating, Velvetleaf: 0
Sunflower [10]
  Plant response rating, Sunflower: 0
[11]; [23]
  Plant response rating, Surinam grass: 0
[11]; [24]
  Plant response rating, Surinam grass: 0
[11]; preemergence
  Plant response rating (0 to 100), Surinam grass: 60
[11]; [25]
  Plant response rating, Surinam grass: 20
[12]; [23]
  Plant response rating, Bermudagrass: 100
[12]; [24]
  Plant response rating, Bermudagrass: 100
[12]; preemergence
  Plant response rating (0 to 100 where 0 is no effect and 100 is complete control), Bermudagrass: 100
[12]; [25]
  Plant response rating, Bermudagrass: 100
[13]; [23]
  Plant response rating, Cocklebur: 0
[13]; [24]
  Plant response rating, Cocklebur: 0
[13]; preemergence
  Plant response rating (0 to 100), Cocklebur: 0
[13]; [25]
  Plant response rating, Cocklebur: 0
[14]; [23]
  Plant response rating, Ragweed, Common: 0
[14]; [24]
  Plant response rating, Ragweed, Common: 0
[14]; preemergence
  Plant response rating (0 to 100), Ragweed, Common: 100
[14]; [25]
  Plant response rating, Ragweed, Common: 20
[15]; [23]
  Plant response rating, Crabgrass: 100
[15]; [24]
  Plant response rating, Crabgrass: 90
[15]; preemergence
  Plant response rating (0 to 100), Crabgrass: 100
[15]; [25]
  Plant response rating, Crabgrass: 100
[16]; [23]
  Plant response rating, Foxtail, Giant: 0
[16]; [24]
  Plant response rating, Foxtail, Giant: 0
[16]; preemergence
  Plant response rating (0 to 100), Foxtail, Giant: 0
[16]; [25]
  Plant response rating, Foxtail, Giant: 0
[17]; [23]
  Plant response rating, Goosegrass: 100
[17]; [24]
  Plant response rating, Goosegrass: 90
[17]; preemergence
  Plant response rating (0 to 100), Goosegrass: 100
[17]; [25]
  Plant response rating, Goosegrass: 100
[18]; [23]
  Plant response rating, Morningglory: 0
[18]; [24]
  Plant response rating, Morningglory: 0
[18]; [25]
  Plant response rating, Morningglory: 100
[19]; [23]
  Plant response rating, Velvetleaf: 10
[19]; [24]
  Plant response rating, Velvetleaf: 0
[19]; preemergence
  Plant response rating (0 to 100), Velvetleaf: 20
[19]; [25]
  Plant response rating, Velvetleaf: 20
Sunflower [20]
  Plant response rating (0 to 100), Sunflower: 30

## CC(C)(C)c1ccn(C2CCN(c3cccc(SC(F)(F)F)c3)C2=O)n1 (centres unmarked) [Compound 93]
[1]; [21]
  Plant response rating, Surinam grass: 70
[1]; [22]
  Plant response rating, Surinam grass: 0
[2]; [21]
  Plant response rating, Barnyardgrass: 100
[2]; [22]
  Plant response rating, Barnyardgrass: 0
[3]; [21]
  Plant response rating, Cocklebur: 0
[3]; [22]
  Plant response rating, Cocklebur: 0
Corn (Zea mays); [21]
  Plant response rating, Corn: 0
Corn (Zea mays); [22]
  Plant response rating, Corn: 0
[4]; [21]
  Plant response rating, Crabgrass: 100
[4]; [22]
  Plant response rating, Crabgrass: 20
[5]; [21]
  Plant response rating, Foxtail, Giant: 90
[5]; [22]
  Plant response rating, Foxtail, Giant: 20
[6]; [21]
  Plant response rating, Lambsquarters: 100
[6]; [22]
  Plant response rating, Lambsquarters: 60
[7]; [21]
  Plant response rating, Morningglory: 0
[7]; [22]
  Plant response rating, Morningglory: 0
[8]; [21]
  Plant response rating, Pigweed: 80
[8]; [22]
  Plant response rating, Pigweed: 0
Rice (Oryza saliva); [21]
  Plant response rating, Rice: 0
Rice (Oryza saliva); [22]
  Plant response rating, Rice: 0
[9]; [21]
  Plant response rating, Velvetleaf: 0
[9]; [22]
  Plant response rating, Velvetleaf: 0
Sunflower [10]
  Plant response rating, Sunflower: 0
[11]; [23]
  Plant response rating, Surinam grass: 10
[11]; [24]
  Plant response rating, Surinam grass: 0
[11]; preemergence
  Plant response rating (0 to 100), Surinam grass: 70
[11]; [25]
  Plant response rating, Surinam grass: 30
[12]; [23]
  Plant response rating, Bermudagrass: 90
[12]; [24]
  Plant response rating, Bermudagrass: 0
[12]; preemergence
  Plant response rating (0 to 100 where 0 is no effect and 100 is complete control), Bermudagrass: 100
[12]; [25]
  Plant response rating, Bermudagrass: 100
[13]; [23]
  Plant response rating, Cocklebur: 0
[13]; [24]
  Plant response rating, Cocklebur: 0
[13]; preemergence
  Plant response rating (0 to 100), Cocklebur: 20
[13]; [25]
  Plant response rating, Cocklebur: 0
[14]; [23]
  Plant response rating, Ragweed, Common: 0
[14]; [24]
  Plant response rating, Ragweed, Common: 0
[14]; preemergence
  Plant response rating (0 to 100), Ragweed, Common: 0
[14]; [25]
  Plant response rating, Ragweed, Common: 0
[15]; [23]
  Plant response rating, Crabgrass: 100
[15]; [24]
  Plant response rating, Crabgrass: 80
[15]; preemergence
  Plant response rating (0 to 100), Crabgrass: 100
[15]; [25]
  Plant response rating, Crabgrass: 100
[16]; [23]
  Plant response rating, Foxtail, Giant: 20
[16]; [24]
  Plant response rating, Foxtail, Giant: 0
[16]; preemergence
  Plant response rating (0 to 100), Foxtail, Giant: 60
[16]; [25]
  Plant response rating, Foxtail, Giant: 20
[17]; [23]
  Plant response rating, Goosegrass: 100
[17]; [24]
  Plant response rating, Goosegrass: 20
[17]; preemergence
  Plant response rating (0 to 100), Goosegrass: 100
[17]; [25]
  Plant response rating, Goosegrass: 100
[18]; [23]
  Plant response rating, Morningglory: 0
[18]; [24]
  Plant response rating, Morningglory: 0
[18]; preemergence, Rate 500 g/ha, visual evaluation after 12 to 14 days
  Plant response rating (0 to 100), Morningglory: 20
[18]; [25]
  Plant response rating, Morningglory: 0
[19]; [23]
  Plant response rating, Velvetleaf: 0
[19]; [24]
  Plant response rating, Velvetleaf: 0
[19]; preemergence
  Plant response rating (0 to 100), Velvetleaf: 20
[19]; [25]
  Plant response rating, Velvetleaf: 0
Sunflower [20]
  Plant response rating (0 to 100), Sunflower: 20
